{"source": "patent US20110311457A1", "about": "“METHODS FOR IMAGING VASCULAR INFLAMMATION USING IMPROVED NANOPARTICLE CONTRAST AGENTS” (NANOSCAN IMAGING, LLC, priority 2007, published 2011)", "key": {"[1]": {"test": "Particle size during milling, XDC", "format": "physicochemical", "description": "In one embodiment, XDC (X-ray disc centrifuge sedimentometry) is used to measure particle size distribution. This is one of the most precise methods available for inorganic materials. The technique is based on the fact that particles of a different size (and of the same density) will take different times to travel between two points under the same force (e.g., gravity, centrifugal force): a larger particle will travel faster than a small particle. The derivation of the Stokes' equation for centrifugal sedimentation has been described many times in the literature (Thomas, J. C., and Fairhurst, D. (1991) Surface Phenomena and Fine Particles in Water-based Coatings and Paints. Sharma, M. K., and Micale, F. J. (eds), Plenum Press, New York). The relationship between size and the time taken is a square function. Thus, if a particle of (for example) one micron, takes one second to traverse a given distance, a 0.1 micron particle will take 100 seconds. With a distribution a particle sizes, the particles will effectively fractionate as they move under the proscribed (centrifugal) force. Because time can be measured extremely precisely, the sizes detected can be measured with great precision. The method used to determine the “amount” of material at any given size is X-ray absorbtion. For many inorganic materials, X-rays are absorbed in proportion to mass. The particle size density is therefore “mass-weighted.” Since, for a given particle density, mass is proportional to volume, a “volume-weighted” value (Dv) can be calculated for particle size density. Making the assumption that the particles are spherical, Dv can be transformed into either a surface-weighted value (Ds) or a number-weighted value (Dn). The latter number can be compared with the size determined from electron microscopy. For particle sizes in the colloidal domain (less than 1 micron), the assumption of sphericity is quite reasonable and becomes more so as the particle size gets smaller into the deep sub-micron (<100 nm) and the true nanometer (ca 10 nm) range. The size range that can be accommodated in XDC measurements is dictated only by the width of the particle size density, e.g., how long the measurement will take. The XDC method can be quite time consuming for a very broad particle size density.\n(§1) N1177 was milled to the desired particle size distribution. The particle size during milling was monitored in a preliminary study by periodically measuring particle size using XDC and PCS instruments."}, "[2]": {"test": "Particle size during milling, PCS", "format": "physicochemical", "description": "This is the most widely used technique for particle size density determination and there are two main variations: photon correlation spectroscopy (PCS), and Fraunhofer Diffraction (FD). The choice is dictated by the particle size range under investigation. PCS works for sizes from a few nanometers up to about 1 micron (1000 nm), and FD works from about 1 micron up to millimeters. Both methods are called “ensemble averaging methods.” This means that the two relevant pieces of information needed to describe the particle size density (the actual size and the amount of material at that size) need to be deconvoluted from a single measurement of the amount of light scattered. This involves application of extremely complex theory and equally complex deconvolution algorithms (Kerker, M. (1969) The Scattering of Light and other Electromagnetic Radiation. Academic Press, New York). Thus, both measurement variations are intrinsically low resolution: typically the best that can be achieved is to differentiate between two class sizes (Weiner, B. B. (1984) Modern Methods of Particle Sizing. Barth, H. (ed). Wiley-Interscience). A technical issue arises when the particle size density extends across the one micron point, because then the two different algorithms/theories need to be applied and these cannot be combined together. Attempts to do so result in artifacts in the particle size density such that commercial instruments smooth the data resulting in even less resolution. Being based on light scattering, the fundamental value obtained is an “intensity-weighted” number (Di). Transforming the Di value into a Dv value presents several challenges. The first is that, in addition to the assumption of sphereicity, both PCS and FD weight the intensity differently, and the second is that the transform necessitates application of scattering and efficiency corrections (Weiner, B. B., Fairhurst, D., and Tscharnuter, W. W. (1991) Particle Size Distribution II—Assessment and Characterization. Provder, T. (ed). ACS Symposium Series No. 472. American Chemical Society). Although such corrections can be calculated from Mie theory (Kerker, M. (1969) The Scattering of Light and other Electromagnetic Radiation. Academic Press, New York), they are particle size dependent and require knowledge of the optical properties (complex refractive index) of both the particles and the surrounding medium. The result is that the Dv value (and if further transforms are made to Ds and Dn) can be widely inaccurate. However, for quality control purposes the technique is extremely fast and, for measurements on the same material, extremely reproducible. Laser light scattering may also be referred to as Dynamic Light Scattering (DLS) and generally refers to the PCS technique. Asymmetrical flow field-flow-fractionation (AF4) is a newer method based on light scattering which may be employed. The benefit A4F is that the method is able to separate nanoparticle mixtures prior to DLS analysis.\nas §1"}, "rabbit VX2-tumor": {"system": "rabbit VX2-tumor", "test": "CT tumor perfusion imaging in a tumor bearing rabbit", "format": "in vivo", "details": "for HU value, ROI 1 Tumor vessel / HU value, ROI 2 Vessel / HU value, ROI 3 Tumor vital tissue / HU value, ROI 4 Tumor necrotic tissue / HU value, ROI 5 Whole tumor: 300 mgI/kg b.w.", "description": "The goal of the study was to explore the potential of different contrast media to visualize tumor perfusion."}, "SPF-mice": {"system": "SPF-mice", "details": "established marketed contrast media, comparison value; cited from earlier work"}, "erythrocytes": {"system": "erythrocytes", "test": "Influence on erythrocyte morphology (damage index) in vitro", "format": "cell-based, human", "details": "final conc. 52.86 mg I/mL, value in % of maximal damage index", "method": "Effects on red blood cells can be monitored in vitro, by exposing human blood to contrast agents, monitoring the appearance of deformed erythrocytes and deriving a “damage index” (D.I.) immediately after exposure, 1 and 2 hours after incubation. Parameters: Morphological changes of blood erxthrocytes;"}}, "data": [{"smiles": "CCOC(=O)CCCCCOC(=O)c1c(I)c(NC(C)=O)c(I)c(NC(C)=O)c1I", "note": "[Compound N1177, 6-ethoxy-6-oxohexy-3,5-bis(acetylamino)-2,4,6-triiodobenzoate]", "values": [{"measurement": "Mean Size DN (XDC)", "setting": "[1]; Milled Day 3", "value": 84, "unit": "nm"}, {"measurement": "Mean Size DV (XDC)", "setting": "[1]; Milled Day 3", "value": 148, "unit": "nm"}, {"measurement": "Mean Size DN (XDC)", "setting": "[1]; Milled Day 5", "value": 79, "unit": "nm"}, {"measurement": "Mean Size DV (XDC)", "setting": "[1]; Milled Day 5", "value": 143, "unit": "nm"}, {"measurement": "Mean Size DN (XDC)", "setting": "[1]; Milled Day 7", "value": 77, "unit": "nm"}, {"measurement": "Mean Size DV (XDC)", "setting": "[1]; Milled Day 7", "value": 138, "unit": "nm"}, {"measurement": "Mean Size DN (XDC)", "setting": "[1]; T = 0 (unmilled)", "value": 173, "unit": "nm"}, {"measurement": "Mean Size DV (XDC)", "setting": "[1]; T = 0 (unmilled)", "value": 424, "unit": "nm"}, {"measurement": "Mean Effective Diameter (PCS)", "setting": "[2]; Milled Day 3", "value": 158, "unit": "nm"}, {"measurement": "Mean Effective Diameter (PCS)", "setting": "[2]; Milled Day 4", "value": 151, "unit": "nm"}, {"measurement": "Mean Effective Diameter (PCS)", "setting": "[2]; Milled Day 5", "value": 149, "unit": "nm"}, {"measurement": "Mean Effective Diameter (PCS)", "setting": "[2]; Milled Day 6", "value": 148, "unit": "nm"}, {"measurement": "Mean Effective Diameter (PCS)", "setting": "[2]; Milled Day 7", "value": 147, "unit": "nm"}, {"measurement": "Mean Effective Diameter (PCS)", "setting": "[2]; T = 0 (unmilled)", "value": 236, "unit": "nm"}, {"measurement": "HU value, ROI 1 Tumor vessel", "setting": "rabbit VX2-tumor", "value": 81, "unit": "HU"}, {"measurement": "HU value, ROI 2 Vessel", "setting": "rabbit VX2-tumor", "value": 307, "unit": "HU"}, {"measurement": "HU value, ROI 3 Tumor vital tissue", "setting": "rabbit VX2-tumor", "value": 5, "unit": "HU"}, {"measurement": "HU value, ROI 4 Tumor necrotic tissue", "setting": "rabbit VX2-tumor", "value": 9, "unit": "HU"}, {"measurement": "HU value, ROI 5 Whole tumor", "setting": "rabbit VX2-tumor", "value": 13, "unit": "HU"}]}, {"smiles": "COCC(=O)Nc1c(I)c(C(=O)NCC(O)CO)c(I)c(C(=O)N(C)CC(O)CO)c1I", "note": "(centres unmarked) [Ultravist]", "values": [{"measurement": "LD50", "setting": "SPF-mice", "value": "> 12", "unit": "g Iodine/kg bw"}, {"measurement": "Damage index after incubation", "setting": "erythrocytes; 0 h", "value": 31.2, "unit": "%"}, {"measurement": "Damage index after incubation", "setting": "erythrocytes; 1 h", "value": 12.2, "unit": "%"}, {"measurement": "Damage index after incubation", "setting": "erythrocytes; 2 h", "value": 24.4, "unit": "%"}, {"measurement": "HU value, ROI 1 Tumor vessel", "setting": "rabbit VX2-tumor", "value": 95, "unit": "HU"}, {"measurement": "HU value, ROI 2 Vessel", "setting": "rabbit VX2-tumor", "value": 294, "unit": "HU"}, {"measurement": "HU value, ROI 3 Tumor vital tissue", "setting": "rabbit VX2-tumor", "value": 30, "unit": "HU"}, {"measurement": "HU value, ROI 4 Tumor necrotic tissue", "setting": "rabbit VX2-tumor", "value": 4, "unit": "HU"}, {"measurement": "HU value, ROI 5 Whole tumor", "setting": "rabbit VX2-tumor", "value": 37, "unit": "HU"}, {"measurement": "tumor perfusion (intra-/extravasal)", "setting": "rabbit VX2-tumor; dynamic CT 0-80 s", "value": "intra- and extravasal perfusion"}]}]}
